Legend:
[1] = target: T1, Avi-KRAS WT (1-169) GppNHp/RAF1 RBD-3xFLAG (52-151) (Homo sapiens, UniProt P01116); test: Raf1-KRAS WT-GppNHP disruption HTRF assay (Biological Example 1); assay type: binding
T1 construct: Avi-KRAS WT (1-169)
Procedure, shortened: (§1)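 Read-out is HTRF signal of the KRAS–RAF1 RBD complex, reported as percentage of activity relative to DMSO (100%). Protein mix and detection reagents each incubated 1 h at room temperature with 700 rpm shaking. Buffer: 50 mM Tris pH 7.5, 100 mM NaCl, 5 mM MgCl2, 0.1% BSA, 0.01% Tween, 10% DMSO.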

[2] = target: T2, Avi-KRAS G12R (1-169) GppNHp/RAF1 RBD-3xFLAG (52-151) (Homo sapiens, UniProt P01116, G12R); test: Raf1-KRAS G12R-GppNHP disruption HTRF assay (Biological Example 1); assay type: binding
T2 construct: Avi-KRAS G12R (1-169)
Procedure, shortened: as §1

[3] = target: T3, Avi-KRAS G12D (1-169) GppNHp/RAF1 RBD-3xFLAG (52-151) (Homo sapiens, UniProt P01116, G12D); test: Raf1-KRAS G12D-GppNHP disruption HTRF assay (Biological Example 1); assay type: binding
T3 construct: Avi-KRAS G12D (1-169)
Procedure, shortened: as §1

GP2d cells (KRAS G12D) = test: Cell-based pERK HTRF assay in GP2d cell (Biological Example 2); settings: GP2d, GP2d (KRAS G12D) cells, pERK HTRF
Procedure, shortened: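 HTRF read-out of pERK (excitation 320 nm, emission 615 nm) after lysates sat 4–24 h at room temperature with Eu cryptate and d2 antibodies.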

SW620 cells (KRAS G12V) = test: Cell-based pERK HTRF assay in SW620 cell (Biological Example 4); settings: Homo sapiens, SW-620, SW620 (KRAS G12V) cells, pERK HTRF
Procedure: A pERK assay (Perkin Elmer) was used to determine the effectiveness of compounds in disrupting KRAS G12V protein/effector signaling in cells.
On Day 1, cells (SW620) were seeded into 96-well plates at 3×10^4 cells/well in 80 μL complete growth media (RPMI, 10% FBS).
On Day 2, cells were treated with compounds at 0.25% DMSO. The source plate was created with compounds diluted in media at 5-fold the final assay concentration. The compounds were run in a 9-point concentration curve starting at 1 μM, with a half-log dilution between concentrations. Twenty μL was transferred onto the cell plates (final volume in wells was 100 μL). Plates were harvested after 4 h incubation by aspirating media and adding kit-supplied 1x supplemented lysis buffer to all wells (50 μL per well). Plates were then placed on a plate shaker and incubated at 850 rpm for an additional 30 min.
Antibody mixture solution was prepared by diluting aliquoted d2 and Eu Cryptate antibodies 1:20 in kit supplied detection buffer and mixing the diluted antibodies solutions (1:1 v:v).
Samples were homogenized by pipetting up and down and then transferred (16 μL of cell lysates) from the 96-well cell culture plate to two wells of the HTRF 384-well detection plate containing the antibody solution. Plates were centrifuged (524 g for Imin) and allowed to incubate between 4 and 24 h at room temperature. […] Plates were centrifuged again (524 g for 1 min), then analyzed on the En Vision plate reader using the following settings: Excitation 320 nm, Bandwidth 75 nm; Emission 615 nm, Bandwidth 85 nm; Gain 100%; Flashes 100; Lag 60 μs.

[4] = target: T4, Avi-KRAS G12V (1-169) GppNHp/RAF1 RBD-3xFLAG (52-151) (Homo sapiens, UniProt P01116, G12V); test: Raf1-KRAS G12V-GppNHP disruption HTRF assay (Biological Example 1); assay type: binding
T4 construct: Avi-KRAS G12V (1-169)
Procedure, shortened: as §1

[5] = KRAS WT, GppNHp-loaded, class symbols
[6] = KRAS G12R, GppNHp-loaded, class symbols
[7] = KRAS G12D, GppNHp-loaded, class symbols
[8] = KRAS G12V, GppNHp-loaded, class symbols
[9] = KRAS WT, GppNHp-loaded, Table 11
[10] = KRAS G12R, GppNHp-loaded, Table 11
[11] = KRAS G12D, GppNHp-loaded, Table 11
[12] = KRAS G12V, GppNHp-loaded, Table 11

T4 sequence (P01116 1-169 isoform P01116-2 G12V): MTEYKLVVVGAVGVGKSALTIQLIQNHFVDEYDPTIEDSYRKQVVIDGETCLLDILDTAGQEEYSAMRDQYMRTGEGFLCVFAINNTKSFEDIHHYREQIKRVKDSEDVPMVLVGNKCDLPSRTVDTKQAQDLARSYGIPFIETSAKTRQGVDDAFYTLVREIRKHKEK
T1 sequence (P01116 1-169 isoform P01116-2): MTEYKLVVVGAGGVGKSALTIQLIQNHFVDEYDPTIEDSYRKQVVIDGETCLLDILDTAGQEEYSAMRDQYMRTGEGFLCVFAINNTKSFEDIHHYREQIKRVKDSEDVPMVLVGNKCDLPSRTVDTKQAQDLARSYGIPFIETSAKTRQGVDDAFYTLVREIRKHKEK
T2 sequence (P01116 1-169 isoform P01116-2 G12R): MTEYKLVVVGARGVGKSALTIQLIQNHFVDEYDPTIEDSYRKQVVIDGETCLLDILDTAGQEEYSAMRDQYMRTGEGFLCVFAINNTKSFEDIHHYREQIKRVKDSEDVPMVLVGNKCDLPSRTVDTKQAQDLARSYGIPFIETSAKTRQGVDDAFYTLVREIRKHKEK
T3 sequence (P01116 1-169 isoform P01116-2 G12D): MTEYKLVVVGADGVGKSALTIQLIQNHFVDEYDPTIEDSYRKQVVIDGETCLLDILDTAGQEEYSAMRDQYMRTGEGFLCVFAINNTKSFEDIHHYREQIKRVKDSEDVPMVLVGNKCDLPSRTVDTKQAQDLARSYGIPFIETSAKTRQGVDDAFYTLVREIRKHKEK

Row | SMILES | IC50 [1, 5] | IC50 [2, 6] | IC50 [3, 7] | IC50 (GP2d cells (KRAS G12D); class symbols) | IC50 (SW620 cells (KRAS G12V); class symbols) | IC50 [4, 8] | IC50 ([1]; KRAS WT-GppNHp/RAF1 RBD HTRF) | IC50 ([2]; KRAS G12R-GppNHp/RAF1 RBD HTRF) | IC50 ([3]; KRAS G12D-GppNHp/RAF1 RBD HTRF) | IC50 (GP2d cells (KRAS G12D)) | IC50 (SW620 cells (KRAS G12V)) | IC50 ([4]; KRAS G12V-GppNHp/RAF1 RBD HTRF) | IC50 [1, 9] | IC50 [2, 10] | IC50 [3, 11] | IC50 [4, 12]
1 | CCN1CC[C@@H](N(CC)c2nc(OC[C@@]34CCCN3C[C@H](F)C4)nc3c(F)c(-c4ccc(F)c5sc(N)c(C#N)c45)c(C(F)(F)F)cc23)C1=O (atropisomer, axis not shown) [Compound 695] | 100 to 1000 nM | 100 to 1000 nM | 100 to 1000 nM | < 100 nM | < 100 nM | 100 to 1000 nM |  |  |  |  |  |  |  |  |  | 
2 | CCN(c1nc(OC[C@@]23CCCN2C[C@H](F)C3)nc2c(F)c(-c3ccc(F)c4sc(N)c(C#N)c34)c(C(F)(F)F)cc12)[C@H]1CCN(C(=O)C2CC2(F)F)C1 (stereo partly drawn) [Compound 548] |  |  |  |  |  |  | < 100 nM | < 100 nM | < 100 nM | < 100 nM | < 100 nM | < 100 nM |  |  |  | 
3 | COC(=O)N1CC[C@@H](N(C)c2nc(OC[C@@]34CCCN3C[C@H](F)C4)nc3c(F)c(-c4ccc(F)c5sc(N)c(C#N)c45)c(C(F)(F)F)cc23)[C@H]1C [Compound 410] |  |  |  |  |  |  | 100 to 1000 nM | 100 to 1000 nM | 100 to 1000 nM | < 100 nM | < 100 nM | 100 to 1000 nM |  |  |  | 
4 | CCN(c1nc(OC[C@@]23CCCN2C[C@H](F)C3)nc2c(F)c(-c3ccc(F)c4sc(N)c(C#N)c34)c(C(F)(F)F)cc12)[C@H]1CCN(C(=O)OCC2COC2)C1 (atropisomer, axis not shown) [Compound 639] | < 100 nM | < 100 nM | < 100 nM | < 100 nM | < 100 nM | < 100 nM |  |  |  |  |  |  |  |  |  | 
5 | CCN(c1nc(OC[C@@]23CCCN2C[C@H](F)C3)nc2c(F)c(-c3ccc(F)c4sc(N)c(C#N)c34)c(C(F)(F)F)cc12)[C@H]1CCN(C(=O)c2cncnc2)C1 (atropisomer, axis not shown) [Compound 727] | 100 to 1000 nM | < 100 nM | < 100 nM | < 100 nM | < 100 nM | 100 to 1000 nM |  |  |  |  |  |  |  |  |  | 
6 | CCN(c1nc(OC[C@@]23CCCN2C[C@H](F)C3)nc2c(F)c(-c3ccc(F)c4sc(N)c(C#N)c34)c(C(F)(F)F)cc12)[C@H]1CCN(C(=O)OC2CN(C(C)=O)C2)C1 (atropisomer, axis not shown) [Compound 721] | < 100 nM | < 100 nM | < 100 nM | < 100 nM | < 100 nM | < 100 nM |  |  |  |  |  |  |  |  |  | 
7 | CCN(c1nc(OC[C@@]23CCCN2C[C@H](F)C3)nc2c(F)c(-c3ccc(F)c4sc(N)c(C#N)c34)c(C(F)(F)F)cc12)[C@H]1CCN(C(=O)N2CC3(COC3)C2)C1 (atropisomer, axis not shown) [Compound 637] | < 100 nM | < 100 nM | < 100 nM | < 100 nM | < 100 nM | < 100 nM |  |  |  |  |  |  |  |  |  | 

Further lines, results first:

Row | IC50 [1, 5] | IC50 [2, 6] | IC50 [3, 7] | IC50 (GP2d cells (KRAS G12D); class symbols) | IC50 (SW620 cells (KRAS G12V); class symbols) | IC50 [4, 8] | IC50 ([1]; KRAS WT-GppNHp/RAF1 RBD HTRF) | IC50 ([2]; KRAS G12R-GppNHp/RAF1 RBD HTRF) | IC50 ([3]; KRAS G12D-GppNHp/RAF1 RBD HTRF) | IC50 (GP2d cells (KRAS G12D)) | IC50 (SW620 cells (KRAS G12V)) | IC50 ([4]; KRAS G12V-GppNHp/RAF1 RBD HTRF) | IC50 [1, 9] | IC50 [2, 10] | IC50 [3, 11] | IC50 [4, 12] | SMILES
8 |  |  |  |  |  |  |  |  |  | < 100 nM | < 100 nM |  | < 100 nM | < 100 nM | < 100 nM | 100 to 1000 nM | N#Cc1c(N)sc2c(F)ccc(-c3c(C(F)(F)F)cc4c(N5CCOCC(O)C5)nc(OC[C@@]56CCCN5C[C@H](F)C6)nc4c3F)c12 (stereo partly drawn) [Compound 266]
9 |  |  |  |  |  |  | 100 to 1000 nM | 1000 to 10000 nM | 1000 to 10000 nM | < 100 nM | 100 to 1000 nM | 1000 to 10000 nM |  |  |  |  | CC(=O)N1CCC2[C@H]1CCCN2c1nc(OC[C@@]23CCCN2C[C@H](F)C3)nc2c(F)c(-c3ccc(F)c4sc(N)c(C#N)c34)c(C(F)(F)F)cc12 (stereo partly drawn) [Compound 304]
10 |  |  |  |  |  |  |  |  |  | < 100 nM | < 100 nM |  | 100 to 1000 nM | 100 to 1000 nM | 100 to 1000 nM | 100 to 1000 nM | CN(C[C@@H](F)CO)c1nc(OC[C@@]23CCCN2C[C@H](F)C3)nc2c(F)c(-c3ccc(F)c4sc(N)c(C#N)c34)c(C(F)(F)F)cc12 [Compound 218]

From patent US20260042764A1, “COMPOSITIONS AND METHODS FOR INHIBITION OF KRAS” (TheRas, Inc., priority 2022, published 2026)
